# Measured values published in US7884083B2, “Immunomodulatory compositions, methods of making, and methods of use thereof” (Dynavax Technologies Corporation, priority 2002, dated 2011).
# Test system: human peripheral blood lymphocytes (PBMCs)
# Assay: hPBMC assay: IFN-γ and IFN-α production by human PBMCs (ELISA)
# Assay type: cell-based
# [1] = Donor 198, no Time given, 20 μg/ml oligonucleotide
# [2] = Donor 199, no Time given, 20 μg/ml oligonucleotide
# [3] = Donor 28212, Controls, 20 μg/ml oligonucleotide, 100 μg/ml polymyxin
# [4] = Donor 28213, Controls, 20 μg/ml oligonucleotide, 100 μg/ml polymyxin
# [5] = Donor 28232, no Time given, 20 μg/ml oligonucleotide, 100 μg/ml polymyxin
# [6] = Donor 28233, no Time given, 20 μg/ml oligonucleotide, 100 μg/ml polymyxin
# [7] = Donor # 9, 20 μg/ml oligonucleotide, 100 μg/ml PMXB, 24 hours
# [8] = Donor # 37, 20 μg/ml oligonucleotide, 100 μg/ml PMXB, 24 hours
# [9] = Donor # 86, 20 μg/ml oligonucleotide, 100 μg/ml PMXB, 24 hours
# [10] = Donor # 87, 20 μg/ml oligonucleotide, 100 μg/ml PMXB, 24 hours
# [11] = Donor # 88, 20 μg/ml oligonucleotide, 100 μg/ml PMXB, 24 hours
# [12] = Donor # 89, 20 μg/ml oligonucleotide, 100 μg/ml PMXB, 24 hours
# [13] = Donor # 90, 20 μg/ml oligonucleotide, 100 μg/ml PMXB, 24 hours
# [14] = Donor # 91, 20 μg/ml oligonucleotide, 100 μg/ml PMXB, 24 hours
# [15] = Donor # 94, 20 μg/ml oligonucleotide, 100 μg/ml PMXB, 24 hours
# [16] = Donor # 95, 20 μg/ml oligonucleotide, 100 μg/ml PMXB, 24 hours
# [17] = Mean (Table 4), Controls, 20 μg/ml oligonucleotide, 100 μg/ml polymyxin
# [18] = Mean (Table 5), no Time given, 20 μg/ml oligonucleotide
# [19] = Mean (Table 6), no Time given, 20 μg/ml oligonucleotide, 100 μg/ml polymyxin
# [20] = Mean of donors (Table 2), 20 μg/ml oligonucleotide, 100 μg/ml PMXB, 24 hours
# [21] = Table 3, Donor 1, PMXB 100 μg/ml, AMTB 10 μg/ml, serum containing medium
# [22] = Table 3, Donor 2, PMXB 100 μg/ml, AMTB 10 μg/ml, serum containing medium
# [23] = Table 3, Mean, PMXB 100 μg/ml, AMTB 10 μg/ml, serum containing medium
# [24] = Table 9, Mean, 20 μg/ml oligonucleotide, 100 μg/ml polymyxin
# [25] = Table 9, donor 149, 20 μg/ml oligonucleotide, 100 μg/ml polymyxin
substance,measurement,setting,value
5′-TGACTGTGAACGTTCGAGATGA-3′ [+ISS],IFN-α,[1],224 pg/mL
same,IFN-γ,[1],10 pg/mL
same,IFN-α,[2],277 pg/mL
same,IFN-γ,[2],167 pg/mL
same,IFN-α,[3],135 pg/mL
same,IFN-γ,[3],5 pg/mL
same,IFN-α,[4],109 pg/mL
same,IFN-γ,[4],17 pg/mL
same,IFN-Υ,[5],276 pg/mL
same,IFN-α,[5],9 pg/mL
same,IFN-Υ,[6],20 pg/mL
same,IFN-α,[6],103 pg/mL
same,IFN-α,[7],131 pg/mL
same,IFN-γ,[7],20 pg/mL
same,IFN-γ,"Donor # 20, 20 μg/ml oligonucleotide, 100 μg/ml PMXB, 24 hours",291 pg/mL
same,IFN-α,[8],70 pg/mL
same,IFN-γ,[8],15 pg/mL
same,IFN-γ,"Donor # 75, 20 μg/ml oligonucleotide, 100 μg/ml PMXB, 24 hours",22 pg/mL
same,IFN-α,[9],358 pg/mL
same,IFN-γ,[9],182 pg/mL
same,IFN-α,[10],212 pg/mL
same,IFN-γ,[10],341 pg/mL
same,IFN-α,[11],264 pg/mL
same,IFN-γ,[11],367 pg/mL
same,IFN-α,[12],207 pg/mL
same,IFN-γ,[12],100 pg/mL
same,IFN-α,[13],119 pg/mL
same,IFN-γ,[13],13 pg/mL
same,IFN-α,[14],0 pg/mL
same,IFN-γ,[14],27 pg/mL
same,IFN-α,[15],274 pg/mL
same,IFN-γ,[15],30 pg/mL
same,IFN-α,[16],26 pg/mL
same,IFN-γ,[16],6 pg/mL
same,IFN-γ,"Donor # 96, 20 μg/ml oligonucleotide, 100 μg/ml PMXB, 24 hours",49 pg/mL
same,IFN-γ,"Donor # 97, 20 μg/ml oligonucleotide, 100 μg/ml PMXB, 24 hours",23 pg/mL
same,IFN-α,[17],122 pg/mL
same,IFN-γ,[17],11 pg/mL
same,IFN-α,[18],250 pg/mL
same,IFN-γ,[18],88 pg/mL
same,IFN-Υ,[19],148 pg/mL
same,IFN-α,[19],56 pg/mL
same,IFN-α,[20],166 pg/mL
same,IFN-γ,[20],106 pg/mL
same,IFN-α,[21],11 pg/mL
same,IFN-γ,[21],29 pg/mL
same,IFN-α,[22],2 pg/mL
same,IFN-γ,[22],0 pg/mL
same,IFN-α,[23],6 pg/mL
same,IFN-γ,[23],15 pg/mL
same,IFN-Υ,[24],76 pg/mL
same,IFN-α,[24],41 pg/mL
same,IFN-Υ,[25],78 pg/mL
same,IFN-α,[25],59 pg/mL
same,IFN-Υ,"Table 9, donor 206, 20 μg/ml oligonucleotide, 100 μg/ml polymyxin",5 pg/mL
